Patent US7579474B2, “Substituted piperidines as modulators of dopamine neurotransmission” (NSAB, Filial AF Neurosearch AB, Sverige, priority 2004, dated 2009)
Where “and” joins values, the source holds several entries; their conditions need not be identical. Identical values can stand only once. Counter-ions that a name gives are not always drawn.

Experiments:
[1] = type: in vitro ADME; settings: rat, microsomes, 0.25 h, pH 7.4
Method: Rat liver microsomes were isolated as described by Förlin (1980) Effects of Clophen A50, 3-methylcholantrene, pregnenolone-16aq-carbonitrile and Phenobarbital on the hepatic microsomal cytochrome P-450-dependent monooxygenaser system in rainbow trout, salmo garirdneri, of different age and sex. Tox Appl Pharm. 54(3) 420-430, with minor modifications e.g. 3 mL/g liver of a 0.1 M Na/K*PO4 buffer with 0.15 M KCl, pH 7.4, (buffer 1) was added before homogenisation, the homogenate was centrifuged for 20 minutes instead of 15, the supernatant was ultracentrifuged at 100.000 g instead of 105.000 g and the pellet from the ultracentrifugation was resuspended in 1 mL/g liver of 20% v/v 87% glycerol in buffer 1.
1 μL of, 0.2 or 1 mM test substance diluted in water and 10 μL 20 mg/mL rat liver micro-some were mixed with 149 μL 37° C. buffer 1 and the reaction was started by addition of 40 μL 4.1 mg/mL NADPH. After 0 or 15 minutes incubation at 37° C. in a heating block (LAB-LINE, MULTI-BLOK Heater or lab4you, TS-100 Thermo shaker at 700 rpm) the reaction was stopped by addition of 100 μL pure acetonitrile. The protein precipitation was then removed by rejecting the pellet after centrifugation at 10.000 g for 10 minutes (Heraeus, Biofuge fresco) in 4° C. The test compound was analysed using HPLC-MS (Hewlett-Packard 1100MSD Series) with a Zorbax SB-C18 column (2.1*150 mm, 5 μm) using 0.03% formic acid and acetonitrile as mobile phase (gradient) or a Zorbax Eclipse XDB-C18 (3*75 mm, 3.5 μm) using 0.03% acetic acid and acetonitrile as mobile phase (gradient). The 15 min turnover was calculated as the fraction of test compound eliminated after 15 minutes, expressed in percent of 0 min levels, ie 100*[conc test compound at 0 min−concentration at 15 min]/conc at 0 min.
Preparation of liver microsomes was performed as described in Förlin (1980). Protocols for incubation with liver microsomes are referred in Crespi et Stresser (2000), and Renwick et al (2001).

[2] = test system: Locomotor activity in MK-801 pre-treated rats; test: Locomotor activity in MK-801 pre-treated rats; settings: for Locomotor activity, MK + example 100 μmol/kg: MK-801 0.7 mg/kg i.p. 90 minutes before test compound, recorded 30-60 minutes after administration
[3] = test system: DOPAC (3,4-dihydroxyphenylacetic acid) in the rat striatum; test: Increase of DOPAC in the rat striatum after systemic administration (in vivo neurochemistry); settings: maximal effects limited to 350-400% of control, range covers 95% of fits, Inactive = inactive at 100 μmol/kg; for ED50: sc; for ED50 DOPAC*: s.c.
Description: After the behavioural activity sessions, the rats were decapitated and their brains rapidly taken out and put on an ice-cold petri-dish. The limbic forebrain, the striatum, the frontal cortex and the remaining hemispheral parts of each rat were dissected and frozen. Each brain part was subsequently analyzed with respect to its content of monoamines and their metabolites.
The monoamine transmitter substances (NA (noradrenaline), DA (dopamine), 5-HT (serotonin)) as well as their amine (NM (normethanephrine), 3-MT (3-methoxytyramine)) and acid (DOPAC (3,4-dihydroxyphenylacetic acid), 5-HIAA (5-hydroxyindoleacetic acid), HVA (homovanillic acid)) metabolites are quantified in brain tissue homogenates by HPLC separations and electrochemical detection.
The analytical method is based on two chromatographic separations dedicated for amines or acids. Two chromatographic systems share a common auto injector with a 10-port valve and two sample loops for simultaneous injection on the two systems. Both systems are equipped with a reverse phase column (Luna C18(2), dp 3 μm, 50*2 mm i.d., Phenomenex) and electrochemical detection is accomplished at two potentials on glassy carbon electrodes (MF-1000, Bioanalytical Systems, Inc.). Via a T-connection the column effluent is passed to the detection cell or to waste. This is accomplished by two solenoid valves, which block either the waste or detector outlet. By not letting the chromatographic front reach the detector, better detection conditions are achieved. The aqueous mobile phase (0.4 ml/min) for the acid system contains Citric Acid 14 mM, Sodium Citrate 10 mM, MeOH 15% (v/v) and EDTA 0.1 mM. Detection potentials relative to Ag/AgCl reference is 0.45 and 0.60V. The aqueous ion pairing mobile phase (0.5 ml/min) for the amine system contains Citric Acid 5 mM, Sodium Citrate 10 mM, MeOH 9% (v/v), MeCN 10.5% (v/v), Decane Sulfonic Acid 0.45 mM, and EDTA 0.1 mM. Detection potentials relative to Ag/AgCl reference is 0.45 and 0.65V.
ED50 values for the increase of DOPAC in striatum are calculated by curve fitting. For most compounds, the evaluation is based on 20 animals over the dose range 0, 3.7, 11, 33 and 100 μmol/kg s.c. in one single experiment. The DOPAC levels are normalised to control and fitted by least square minimization to the function “End-(End-Control)/(1+(dose/ED50)^Slope)”. The four parameters are fitted with the restrictions: ED50>0, 0.5<Slope<3, 350<End<400 or End=200% of control (see table 1). To estimate confidence levels for the parameters, the fit is repeated 100 times with a random evenly distributed squared weight (0 to 1) for every measurement value. Presented ED50-ranges cover 95% of these values.

hERG ion channel = hERG ion channel (Homo sapiens, UniProt Q12809); test: Rb efflux through the hERG ion channel; type: cell-based; settings: Rb efflux method
Chain of hERG ion channel (Q12809 whole entry): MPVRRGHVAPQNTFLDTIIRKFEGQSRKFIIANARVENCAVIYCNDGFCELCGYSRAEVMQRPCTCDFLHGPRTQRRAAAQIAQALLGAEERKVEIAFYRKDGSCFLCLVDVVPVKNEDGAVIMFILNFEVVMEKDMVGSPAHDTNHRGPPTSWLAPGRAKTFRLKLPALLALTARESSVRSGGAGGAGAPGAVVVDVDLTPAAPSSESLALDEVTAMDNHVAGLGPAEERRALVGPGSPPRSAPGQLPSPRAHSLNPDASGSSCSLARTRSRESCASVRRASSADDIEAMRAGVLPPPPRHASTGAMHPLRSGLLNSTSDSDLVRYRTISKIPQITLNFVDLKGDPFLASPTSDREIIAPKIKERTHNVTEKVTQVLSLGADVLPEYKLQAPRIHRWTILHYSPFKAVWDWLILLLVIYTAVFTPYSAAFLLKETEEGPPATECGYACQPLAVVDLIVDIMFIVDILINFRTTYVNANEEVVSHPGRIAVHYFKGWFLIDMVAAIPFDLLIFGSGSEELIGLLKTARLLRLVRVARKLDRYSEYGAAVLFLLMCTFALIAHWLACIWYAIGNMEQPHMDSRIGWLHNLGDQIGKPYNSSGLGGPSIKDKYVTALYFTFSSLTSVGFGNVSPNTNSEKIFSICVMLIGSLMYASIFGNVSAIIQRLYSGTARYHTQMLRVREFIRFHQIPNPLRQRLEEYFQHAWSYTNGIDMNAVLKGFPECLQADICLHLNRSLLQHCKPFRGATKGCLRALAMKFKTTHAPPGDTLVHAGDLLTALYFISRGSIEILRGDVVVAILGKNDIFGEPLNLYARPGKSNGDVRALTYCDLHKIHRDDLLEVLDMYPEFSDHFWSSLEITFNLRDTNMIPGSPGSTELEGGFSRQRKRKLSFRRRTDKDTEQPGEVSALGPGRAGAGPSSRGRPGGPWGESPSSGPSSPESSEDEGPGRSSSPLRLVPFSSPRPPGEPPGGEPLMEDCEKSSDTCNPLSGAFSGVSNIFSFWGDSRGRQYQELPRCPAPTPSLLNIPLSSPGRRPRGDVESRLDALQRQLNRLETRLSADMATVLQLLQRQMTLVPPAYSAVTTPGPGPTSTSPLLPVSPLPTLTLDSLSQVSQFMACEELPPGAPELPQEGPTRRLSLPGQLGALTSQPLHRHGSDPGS
Description: The substances according to the present invention display a low potency at inhibiting the hERG channel, as measured by IC50 in a Rb+ efflux assay (Development and evaluation of high throughput functional assay methods for hERG potassium channel. Tang W, Kang 1, Wu X, Rampe D, Wang L, Shen H, Li Z, Dunnington D, Garyantes T. J Biomol Screen. 2001 October; 6(5):325-31), indicating a low risk for QT interval prolongation and arrhythmia in man.

[4] = test system: amphetamine-induced hyper-locomotion; test: Reduction of amphetamine-induced hyper-locomotion; type: in vivo, rat; settings: rats pretreated with d-amphetamine 1.5 mg/kg i.p.; test compound s.c.; last 45 minutes of one hour; range covers 95% of fits
Description: In this model, dopaminergic neurotransmission is increased by systemic administration of d-amphetamine at a dose that is sufficiently high to produce a large increase in locomotor activity. The ability of a compound to antagonize this hyperactivity reflects anti-dopaminergic properties, which are part of the dopaminergic stabiliser profile.
Photobeam sensors were spaced 2.5 cm apart.
For most compounds, the evaluation is based on 16 amphetamine pre-treated animals over the dose range 0, 11, 33 and 100 μmol/kg s.c. in one single experiment, with complementary doses in separate experiments. Calculations are based on distance during the last 45 minutes of one hour of measurement. The distances are normalised to amphetamine-control and fitted by least square minimization to the function “End-(End-Control)/(1+(dose/ED50)^Slope)”. […] To estimate confidence levels for the parameters, the fit is repeated 100 times with a random evenly distributed squared weight (0 to 1) for every measurement value. Presented ED50-ranges cover 95% of these values.

Structure (SMILES): CCCN1CCC(O)(c2cccc(C(F)(F)F)c2F)CC1 [Example 1, 4-[2-FLUORO-3-(TRIFLUOROMETHYL)PHENYL]-1-PROPYLPIPERIDIN-4-OL]
- turnover at 15 minutes [1]: 27%

Structure (SMILES): C[C@]12N[C@H](Cc3ccccc31)c1ccccc12 [MK-801, reference compound]
- Locomotor activity, MK-801 0.7 mg/kg i.p. ([2]; MK-801 alone, 0.7 mg/kg i.p., recorded 30-60 minutes, one group per experiment, 0.7 mg/kg): 40367 ± 9127 counts/30 min ± SEM and 32169 ± 10605 counts/30 min ± SEM and 30819 ± 12771 counts/30 min ± SEM and 42061 ± 2219 counts/30 min ± SEM and 58370 ± 3007 counts/30 min ± SEM

Structure (SMILES): CCCN1CCC(c2cccc(Cl)c2Cl)CC1 [reference compound]
- ED50 [3]: 41 µmol/kg
- IC50 (hERG ion channel): 5.66 µM

Structure (SMILES): CCCN1CCC(O)(c2cccc(C(F)(F)F)c2OC)CC1
- ED50 DOPAC* [3]: Inactive***

Structure (SMILES): CCCN1CCC(O)(c2ccc(F)c(C(F)(F)F)c2)CC1 [drawing 29]
- ED50 [3]: 76 µmol/kg
- IC50 (hERG ion channel): 60 µM

Structure (SMILES): COCCN1CCC(O)(c2ccc(Cl)c(C(F)(F)F)c2)CC1 [drawing 59]
- Locomotor activity, MK + example 100 μmol/kg [2]: 7407 ± 3282 (P =0.00003) counts/30 min ± SEM

Structure (SMILES): CCCN1CCC(O)(c2cccc(C(F)(F)F)c2F)CC1 [drawing 55]
- Locomotor activity, MK + example 100 μmol/kg [2]: 17802 ± 6842 (P = 0.09) counts/30 min ± SEM

Structure (SMILES): CCCCN1CCC(O)(c2cccc(C(F)(F)F)c2F)CC1 [drawing 28]
- ED50 [3]: 13 µmol/kg
- IC50 (hERG ion channel): 69 µM

Structure (SMILES): CCCN1CCC(O)(c2cccc(Cl)c2Cl)CC1 [drawing 57]
- Locomotor activity, MK + example 100 μmol/kg [2]: 9564 ± 4584 (P =0.16) counts/30 min ± SEM

Structure (SMILES): CCCCN1CCC(O)(c2cccc(C(F)(F)F)c2F)CC1 (as salt: hydrochloric acid salt) [Example 5, 4-[2-FLUORO-3-(TRIFLUOROMETHYL)PHENYL]-1-BUTYLPIPERIDIN-4-OL]
- melting point: 138 °C

Structure (SMILES): CCN1CCC(O)(c2cccc(C(F)(F)F)c2F)CC1 (as salt: hydrochloric acid salt) [Example 3, 4-[2-FLUORO-3-(TRIFLUOROMETHYL)PHENYL]-1-ETHYLPIPERIDIN-4-OL]
- melting point: 177 to 180 °C

Structure (SMILES): COc1cccc(C2(O)CCN(C)CC2)c1OC
- ED50 reduction of amphetamine-induced hyper-locomotion [4]: inactive

Structure (SMILES): COCCN1CCC(O)(c2cccc(Cl)c2Cl)CC1 (as salt: hydrochloric acid salt)
- melting point: 135 to 137 °C

Structure (SMILES): CCCN1CCC(O)(c2cccc(Cl)c2Cl)CC1 (as salt: hydrochloric acid salt)
- melting point: 181 to 183 °C

Structure (SMILES): COCCN1CCC(O)(c2ccc(Cl)c(C(F)(F)F)c2)CC1 [drawing 30]
- ED50 [3]: 32 µmol/kg
- IC50 (hERG ion channel): 68 µM

Structure (SMILES): CCCN1CCC(O)(c2ccc(F)c(C(F)(F)F)c2)CC1 [drawing 58]
- Locomotor activity, MK + example 100 μmol/kg [2]: 7312 ± 4537 (P =0.0005) counts/30 min ± SEM

Structure (SMILES): CCCN1CCC(O)(c2cccc(C(F)(F)F)c2F)CC1 [drawing 25]
- ED50 [3]: 13 µmol/kg
- IC50 (hERG ion channel): 161 µM

Structure (SMILES): COCCN1CCC(O)(c2cccc(C(F)(F)F)c2F)CC1 [drawing 27]
- ED50 [3]: 43 µmol/kg
- IC50 (hERG ion channel): 350 µM

Structure (SMILES): CCN1CCC(O)(c2cccc(C(F)(F)F)c2F)CC1 [drawing 26]
- ED50 [3]: 65 µmol/kg
- IC50 (hERG ion channel): 424 µM

Structure (SMILES): CCCCN1CCC(O)(c2ccc(C)c(C(F)(F)F)c2)CC1 [drawing 31]
- ED50 [3]: 56 µmol/kg

Structure (SMILES): COCCN1CCC(O)(c2ccc(Cl)c(C(F)(F)F)c2)CC1 (as salt: hydrochloric acid salt) [Example 2, 4-[4-CHLORO-3-(TRIFLUOROMETHYL)PHENYL]-1-(2-METHOXYETHYL)PIPERIDIN-4-OL]
- melting point: 181 to 183 °C

Structure (SMILES): CCCCN1CCC(O)(c2ccc(C)c(C(F)(F)F)c2)CC1 (as salt: hydrochloric acid salt) [Example 9, 1-BUTYL-4-[4-METHYL-3-(TRIFLUOROMETHYL)-PHENYL]PIPERIDIN-4-OL]
- melting point: 197 to 198 °C

Structure (SMILES): CCCN1CCC(c2cccc(C(F)(F)F)c2F)CC1 [reference compound]
- ED50 [3]: 9 µmol/kg
- IC50 (hERG ion channel): 7.97 µM

Structure (SMILES): CCCCN1CCC(O)(c2cccc(S(C)(=O)=O)c2F)CC1
- ED50 DOPAC* [3]: Inactive***

Structure (SMILES): CCCN1CCC(O)(c2cccc(S(C)(=O)=O)c2)CC1 [drawing 22]
- ED50 DOPAC* [3]: Inactive***

Structure (SMILES): CCN1CCC(c2ccc(F)c(C(F)(F)F)c2)CC1 [reference compound]
- IC50 (hERG ion channel): 23 µM

Structure (SMILES): COCCN1CCC(O)(c2cccc(C(F)(F)F)c2F)CC1 (as salt: hydrochloric acid salt) [Example 4, 4-[2-FLUORO-3-(TRIFLUOROMETHYL)PHENYL]-1-(2-M ETHOXYETHYL)PIPERIDIN-4-OL]
- melting point: 159 to 160 °C

Structure (SMILES): CCCN1CCC(O)(c2cccc(C(F)(F)F)c2F)CC1 (as salt: hydrochloric acid salt) [Example 1, 4-[2-FLUORO-3-(TRIFLUOROMETHYL)PHENYL]-1-PROPYLPIPERIDIN-4-OL]
- melting point: 175 to 177 °C

Structure (SMILES): CCN1CCC(O)(c2cc(F)cc(C(F)(F)F)c2)CC1
- ED50 DOPAC* [3]: Inactive***
- ED50 DOPAC* ([3]; listed as comparative example 10): inactive

Structure (SMILES): CCCN1CCC(O)(c2ccc(F)c(C(F)(F)F)c2)CC1 (as salt: hydrochloric acid salt) [Example 8, 4-[4-FLUORO-3-(TRIFLUOROMETHYL)PHENYL]-1-PROPYLPIPERIDIN-4-OL]
- melting point: 179 to 181 °C

Structure (SMILES): CCN1CCC(O)(c2cccc(C(F)(F)F)c2F)CC1 [drawing 56]
- Locomotor activity, MK + example 100 μmol/kg [2]: 18307 ± 7375 (P =0.3) counts/30 min ± SEM

Structure (SMILES): CCCN1CCC(c2cccc(C(F)(F)F)c2)CC1
- ED50 [3]: 84 µmol/kg
